ChEMBL document CHEMBL1909046, “DrugMatrix in vitro pharmacology data”

Legend:
[1] = DRUGMATRIX: GABAA, Flunitrazepam, Central radioligand binding (ligand: [3H] Flunitrazepam); assay type: cell membranes, Rattus norvegicus, Wistar, Brain, Membrane; settings: Not Active = under 50% inhibition at 10 µM
[2] = DRUGMATRIX: Imidazoline I2, Central radioligand binding (ligand: [3H] Idazoxan); assay type: cell membranes, Rattus norvegicus, Wistar, Cerebral cortex, Membrane; settings: Not Active = under 50% inhibition at 10 µM
[3] = target: Delta-type opioid receptor (Homo sapiens, UniProt P41143); assay type: cell membranes, HEK293, Membrane; settings: hek293; note: in other assays of this panel Not Active means under 50% inhibition at 10 µM
[4] = target: T1, Progesterone receptor (Bos taurus, UniProt Q690N0); test: DRUGMATRIX: Progesterone radioligand binding (ligand: [3H] R-5020); assay type: tissue-based, Uterus; settings: Not Active = under 50% inhibition at 10 µM; for Ki: read-out: Ki
T1 sequence (Q690N0 whole entry): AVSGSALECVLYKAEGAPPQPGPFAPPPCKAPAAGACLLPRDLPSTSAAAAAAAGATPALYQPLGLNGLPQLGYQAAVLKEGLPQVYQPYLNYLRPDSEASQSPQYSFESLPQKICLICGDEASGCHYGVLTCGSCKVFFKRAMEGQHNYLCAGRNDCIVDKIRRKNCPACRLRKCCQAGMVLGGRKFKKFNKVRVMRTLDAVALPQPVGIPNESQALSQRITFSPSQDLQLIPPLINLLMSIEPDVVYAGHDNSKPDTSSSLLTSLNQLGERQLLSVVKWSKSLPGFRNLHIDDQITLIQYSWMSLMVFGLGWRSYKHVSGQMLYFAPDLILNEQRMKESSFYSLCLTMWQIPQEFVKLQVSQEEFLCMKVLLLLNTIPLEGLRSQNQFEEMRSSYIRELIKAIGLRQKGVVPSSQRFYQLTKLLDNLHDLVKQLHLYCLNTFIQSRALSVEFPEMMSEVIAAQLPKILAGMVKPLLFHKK

[5] = target: Mitogen-activated protein kinase 1 (Homo sapiens, UniProt P28482); test: DRUGMATRIX: Protein Serine/Threonine Kinase, ERK2 enzyme inhibition (substrate: Myelin Basic Protein); parameters: species or system Escherichia coli; settings: Not Active = under 50% inhibition at 10 µM
[6] = target: T2, Cytochrome P450 2A6 (Homo sapiens, UniProt P11509); settings: bti-tn-5b1-4; note: in other assays of this panel Not Active means under 50% inhibition at 10 µM
T2 sequence (P11509 whole entry): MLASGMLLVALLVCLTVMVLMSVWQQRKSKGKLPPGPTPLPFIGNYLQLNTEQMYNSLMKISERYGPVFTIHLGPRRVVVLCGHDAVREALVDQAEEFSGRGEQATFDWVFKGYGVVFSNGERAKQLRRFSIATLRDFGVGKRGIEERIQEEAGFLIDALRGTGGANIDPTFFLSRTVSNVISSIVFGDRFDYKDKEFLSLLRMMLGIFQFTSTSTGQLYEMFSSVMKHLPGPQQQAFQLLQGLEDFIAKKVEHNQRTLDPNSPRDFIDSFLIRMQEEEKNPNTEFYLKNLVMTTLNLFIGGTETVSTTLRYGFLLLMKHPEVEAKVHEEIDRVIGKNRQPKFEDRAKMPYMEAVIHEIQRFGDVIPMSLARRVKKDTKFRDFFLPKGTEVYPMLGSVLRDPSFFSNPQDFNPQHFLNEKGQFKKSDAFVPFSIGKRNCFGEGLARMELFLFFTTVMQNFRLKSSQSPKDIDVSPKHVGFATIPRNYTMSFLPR

Chain of Delta-type opioid receptor (P41143 whole entry): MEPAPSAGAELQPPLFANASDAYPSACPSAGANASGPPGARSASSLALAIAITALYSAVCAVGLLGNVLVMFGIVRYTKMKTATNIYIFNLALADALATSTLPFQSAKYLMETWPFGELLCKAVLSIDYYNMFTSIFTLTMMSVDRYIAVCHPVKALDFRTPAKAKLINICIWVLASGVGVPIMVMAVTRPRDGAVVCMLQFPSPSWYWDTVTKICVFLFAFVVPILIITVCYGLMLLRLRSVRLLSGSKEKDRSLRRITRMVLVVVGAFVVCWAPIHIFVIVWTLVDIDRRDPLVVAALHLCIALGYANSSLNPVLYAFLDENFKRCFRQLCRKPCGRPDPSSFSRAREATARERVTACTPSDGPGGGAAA
Chain of Mitogen-activated protein kinase 1 (P28482 whole entry): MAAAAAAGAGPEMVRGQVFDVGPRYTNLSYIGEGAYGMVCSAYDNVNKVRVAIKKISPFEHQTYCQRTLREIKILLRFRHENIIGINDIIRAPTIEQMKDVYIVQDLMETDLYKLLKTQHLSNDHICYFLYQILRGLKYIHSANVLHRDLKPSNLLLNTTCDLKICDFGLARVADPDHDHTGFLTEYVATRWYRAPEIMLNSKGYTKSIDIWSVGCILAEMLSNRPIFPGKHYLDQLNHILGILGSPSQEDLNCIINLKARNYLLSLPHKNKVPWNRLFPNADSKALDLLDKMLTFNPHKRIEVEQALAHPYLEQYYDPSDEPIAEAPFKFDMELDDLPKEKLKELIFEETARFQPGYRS

C#C[C@]1(O)CC[C@H]2[C@@H]3CCC4=Cc5oncc5C[C@]4(C)[C@H]3CC[C@@]21C [DANAZOL]
IC50 ([1]; read-out: IC50): 54.3 µM
Ki ([1]; read-out: Ki): 44.3 µM
IC50 [2]: Not Active
Ki [2]: Not Active
IC50 [3]: Not Active
IC50 ([4]; read-out: IC50): 0.259 µM
Ki [4]: 0.034 µM
IC50 [5]: Not Active
IC50 [6]: Not Active
Ki [6]: Not Active

CCN[C@@H](C)Cc1cccc(C(F)(F)F)c1 [DEXFENFLURAMINE]
IC50 [1]: Not Active
Ki [1]: Not Active
IC50 [2]: Not Active
Ki [2]: Not Active
IC50 [3]: Not Active
IC50 [4]: Not Active
IC50 [5]: Not Active
IC50 [6]: Not Active
Ki [6]: Not Active

C[C@H](C(=O)O)c1cccc(C(=O)c2ccccc2)c1 [DEXKETOPROFEN]
IC50 [1]: Not Active
Ki [1]: Not Active
IC50 [2]: Not Active
Ki [2]: Not Active
IC50 [3]: Not Active
IC50 [4]: Not Active
IC50 [5]: Not Active
IC50 [6]: Not Active
Ki [6]: Not Active

CN1C(=O)CN=C(c2ccccc2)c2cc(Cl)ccc21 [DIAZEPAM]
IC50 ([1]; read-out: IC50): 0.0288 µM
Ki ([1]; read-out: Ki): 0.0235 µM
IC50 [2]: Not Active
Ki [2]: Not Active
IC50 [3]: Not Active
IC50 [4]: Not Active
IC50 [5]: Not Active
IC50 [6]: Not Active
Ki [6]: Not Active

CN1C[C@H](C(=O)N[C@]2(C)O[C@@]3(O)[C@@H]4CCCN4C(=O)[C@H](Cc4ccccc4)N3C2=O)C[C@@H]2c3cccc4[nH]cc(c34)C[C@H]21 [DIHYDROERGOTAMINE]
IC50 [1]: Not Active
Ki [1]: Not Active
IC50 ([2]; read-out: IC50): 0.0025 µM
Ki ([2]; read-out: Ki): 0.00167 µM
IC50 [3]: Not Active
IC50 [4]: Not Active
IC50 [5]: Not Active
IC50 [6]: Not Active
Ki [6]: Not Active

CC(CCc1ccc(O)cc1)NCCc1ccc(O)c(O)c1 (centres undefined) [DOBUTAMINE]
IC50 [1]: Not Active
Ki [1]: Not Active
IC50 [2]: Not Active
Ki [2]: Not Active
IC50 [3]: Not Active
IC50 [4]: Not Active
IC50 [5]: Not Active
IC50 [6]: Not Active
Ki [6]: Not Active

CCn1cc(C(=O)O)c(=O)c2cc(F)c(N3CCNCC3)nc21 [ENOXACIN]
IC50 [1]: Not Active
Ki [1]: Not Active
IC50 [2]: Not Active
Ki [2]: Not Active
IC50 [3]: Not Active
IC50 [4]: Not Active
IC50 [5]: Not Active
IC50 [6]: Not Active
Ki [6]: Not Active

CCC(=O)O[C@H]1[C@H](O[C@@H]2[C@@H](C)[C@H](O[C@H]3C[C@@](C)(OC)[C@@H](O)[C@H](C)O3)[C@@H](C)C(=O)O[C@H](CC)[C@@](C)(O)[C@H](O)[C@@H](C)C(=O)[C@H](C)C[C@@]2(C)O)O[C@H](C)C[C@@H]1N(C)C [ERYTHROMYCIN PROPIONATE]
IC50 [1]: Not Active
Ki [1]: Not Active
IC50 [2]: Not Active
Ki [2]: Not Active
IC50 [3]: Not Active
IC50 [4]: Not Active
IC50 [5]: Not Active
IC50 [6]: Not Active
Ki [6]: Not Active

C=C(CC)C(=O)c1ccc(OCC(=O)O)c(Cl)c1Cl [ETHACRYNIC ACID]
IC50 [1]: Not Active
Ki [1]: Not Active
IC50 [2]: Not Active
Ki [2]: Not Active
IC50 [3]: Not Active
IC50 [4]: Not Active
IC50 [5]: Not Active
IC50 [6]: Not Active
Ki [6]: Not Active

C#C[C@]1(O)CC[C@H]2[C@@H]3CCc4cc(O)ccc4[C@H]3CC[C@@]21C [ETHINYL ESTRADIOL]
IC50 [1]: Not Active
Ki [1]: Not Active
IC50 [2]: Not Active
Ki [2]: Not Active
IC50 [3]: Not Active
IC50 ([4]; read-out: IC50): 1.07 µM
Ki [4]: 0.139 µM
IC50 [5]: Not Active
IC50 [6]: Not Active
Ki [6]: Not Active

OCCO [ETHYLENE GLYCOL]
IC50 [1]: Not Active
Ki [1]: Not Active
IC50 [2]: Not Active
Ki [2]: Not Active
IC50 [3]: Not Active
IC50 [4]: Not Active
IC50 [5]: Not Active
IC50 [6]: Not Active
Ki [6]: Not Active

CC(=O)OCC(CCn1cnc2cnc(N)nc21)COC(C)=O [FAMCICLOVIR]
IC50 [1]: Not Active
Ki [1]: Not Active
IC50 [2]: Not Active
Ki [2]: Not Active
IC50 [3]: Not Active
IC50 [4]: Not Active
IC50 [5]: Not Active
IC50 [6]: Not Active
Ki [6]: Not Active

O=C(O)Cc1ccc(-c2ccccc2)cc1 [FELBINAC]
IC50 [1]: Not Active
Ki [1]: Not Active
IC50 [2]: Not Active
Ki [2]: Not Active
IC50 [3]: Not Active
IC50 [4]: Not Active
IC50 [5]: Not Active
IC50 [6]: Not Active
Ki [6]: Not Active
